# From patent EP4715056A1, “BIO-BASED TRANS-ACONITATE, PREPARATION METHOD THEREFOR AND USE THEREOF” (Qingdao Institute of Bioenergy and Bioprocess Technology, …, priority 2023, dated 2024)
# System: not listed separately
# Assay: Compatibility (water value method)
# Assay type: physicochemical
# Settings: 2.5 g plasticizer and 25 g acetone titrated with deionized water until turbidity; Table 5
# Description: (§1) The aconitates and tributyl citrate prepared in the above examples and comparative examples were added as plasticizers to PVC resin to obtain PVC plastics. The PVC plastics include 100 parts of PVC resin, 35 parts of plasticizer, 2 parts of oxidized polyethylene wax, and 5 parts of octyltin maleate. The above raw materials were mixed and prepared using the same mixing process to obtain finished PVC products. The performance tests were performed on different plasticizers and the obtained PVC finished products in the above examples and comparative examples. […] Three points were selected for each group of samples, each point was tested once, and a median value was taken. • 2. […] Compatibility: tests were performed using a water value method. Since water molecules are polar, the compatibility between the plasticizer and water can characterize the compatibility between the plasticizer and polar materials (PVC, PLA, and nitrile rubber). When a certain plasticizer has good compatibility with water, it has good compatibility with PVC, and vice versa. In the experiment, 2.5 g of plasticizer and 25 g of acetone were added to a beaker, titrated with a burette filled with deionized water, and agitated while titrating until turbidity appears, and the volume of deionized water consumed was recorded. • 4. Glass transition temperature (Tg): the glass transition temperature was tested using a dynamic mechanical analyzer. Test conditions: nitrogen was taken as the carrier gas, at a test temperature range of -40 to 80°C, a heating rate of 3°C/min, and a frequency of 1 Hz.
row,SMILES,Compatibility [mL]
1,"CCCCOC(=O)C=C(CC(=O)OCCCC)C(=O)OCCCC [Example 32, tributyl aconitate]",13.1
2,"CCCCOC(=O)C=C(CC(=O)OCCCC)C(=O)OCCCC [Example 33, tributyl aconitate]",11.3
3,"CCCCOC(=O)C=C(CC(=O)OCCCC)C(=O)OCCCC [Example 34, tributyl aconitate]",16.1
4,"CCCCOC(=O)C=C(CC(=O)OCCCC)C(=O)OCCCC [Example 35, tributyl aconitate]",8.1
5,"CCCCOC(=O)C=C(CC(=O)OCCCC)C(=O)OCCCC [Example 36, tributyl aconitate]",13.4

# System: not listed separately
# Assay: Chromaticity (platinum-cobalt colorimetry)
# Assay type: physicochemical
# Settings: aconitate/citrate products, Table 4; colour comparison at 25°C
# Description: 3. Chromaticity: preparation of 500# platinum-cobalt colorimetric standard stock solution: 1.2450 g of potassium chloroplatinate and 1.0000 g of cobalt chloride were weighed, with an accuracy of 0.0002 g, the mixture was dissolved in 100 mL of hydrochloric acid, and then diluted to 1000 mL with distilled water. This solution is just the 500# colorimetric standard comparison solution.
# Preparation of colorimetric standards below 500#: different amounts of the 500# stock solution was prepared, and diluted with distilled water to the volume of a colorimetric tube to prepare colorimetric standard solutions of any number. The calculation formula is as follows: V = (N×V1)/500 [formula]
# In the formula, V is the volume of the 500# standard stock solution taken to prepare the N# colorimetric standard solution, in mL; V1 is the volume of the colorimetric tube used, in mL; and N is the number of the colorimetric standard solution to be prepared.
# Color comparison determination was performed at 25°C.
row,SMILES,Chromaticity [Pt-Co]
1,"CCCCOC(=O)C=C(CC(=O)OCCCC)C(=O)OCCCC [Example 32, tributyl aconitate]",60
2,"CCCCOC(=O)C=C(CC(=O)OCCCC)C(=O)OCCCC [Example 33, tributyl aconitate]",100
3,"CCCCOC(=O)C=C(CC(=O)OCCCC)C(=O)OCCCC [Example 34, tributyl aconitate]",50
4,"CCCCOC(=O)C=C(CC(=O)OCCCC)C(=O)OCCCC [Example 35, tributyl aconitate]",300
5,"CCCCOC(=O)C=C(CC(=O)OCCCC)C(=O)OCCCC [Example 36, tributyl aconitate]",60

# System: not listed separately
# Assay: Residual amounts of fat-soluble and water-soluble pigments (HPLC)
# Assay type: physicochemical
# Settings: aconitate/citrate products, Table 4
# Description: 7. Residual amounts of fat-soluble pigments and water-soluble pigments: • a high-performance liquid chromatograph (HPLC) was used, and the instrument sensitivity and stability of the detector should comply with the provisions of GB/T 16631-2008. Chromatographic column: C18 column; injector: 10 µL micro-syringe; solvent: acetonitrile (HPLC grade); acquisition time: 15 min; mobile phase: 80% acetonitrile (HPLC grade) and 20% deionized water; injection volume: 1 µL; wavelength: 230 nm.
# Test: the instrument was adjusted according to the above provisions. After the baseline was stable, 0.2 µL of the sample was injected using a micro-syringe, and the integrator or chromatographic workstation was started at the same time. A pigment concentration-integral area standard curve was established by testing the integral areas of pigments with different concentrations. When the pigment content was measured, the corresponding pigment integral area was automatically given by the instrument, and the pigment concentration was obtained by comparing with the standard curve. The ratio of the pigment concentration to the sample concentration is the pigment content.
SMILES,Residual amounts of fat-soluble pigments [ppm],Residual amounts of water-soluble pigments [ppm]
"CCCCOC(=O)C=C(CC(=O)OCCCC)C(=O)OCCCC [Example 32, tributyl aconitate]",382,1325
"CCCCOC(=O)C=C(CC(=O)OCCCC)C(=O)OCCCC [Example 33, tributyl aconitate]",395,4064
"CCCCOC(=O)C=C(CC(=O)OCCCC)C(=O)OCCCC [Example 34, tributyl aconitate]",428,864
"CCCCOC(=O)C=C(CC(=O)OCCCC)C(=O)OCCCC [Example 35, tributyl aconitate]",3475,5348
"CCCCOC(=O)C=C(CC(=O)OCCCC)C(=O)OCCCC [Example 36, tributyl aconitate]",836,1368

# System: not listed separately
# Assay: Hardness (Shore hardness tester, GB/T 531-2008)
# Assay type: physicochemical
# Settings: PVC plastic: 100 parts PVC resin, 35 parts plasticizer, 2 parts oxidized polyethylene wax, 5 parts octyltin maleate
# Description: as §1, with “The PVC plastics include 100 parts of PVC resin, 35 parts of plasticizer, 2 parts of oxidized polyethylene wax, and 5 parts of octyltin maleate.” left out
row,SMILES,Hardness/Shore D [Shore D]
1,"CCCCOC(=O)C=C(CC(=O)OCCCC)C(=O)OCCCC [Example 32, tributyl aconitate]",43
2,"CCCCOC(=O)C=C(CC(=O)OCCCC)C(=O)OCCCC [Example 33, tributyl aconitate]",47
3,"CCCCOC(=O)C=C(CC(=O)OCCCC)C(=O)OCCCC [Example 34, tributyl aconitate]",41
4,"CCCCOC(=O)C=C(CC(=O)OCCCC)C(=O)OCCCC [Example 35, tributyl aconitate]",55
5,"CCCCOC(=O)C=C(CC(=O)OCCCC)C(=O)OCCCC [Example 36, tributyl aconitate]",43

# System: not listed separately
# Assay: Glass transition temperature (dynamic mechanical analyzer)
# Assay type: physicochemical
# Settings: PVC plastic with 35 parts plasticizer; -40 to 80°C, 3°C/min, 1 Hz
# Description: as §1
row,SMILES,Tg [°C]
1,"CCCCOC(=O)C=C(CC(=O)OCCCC)C(=O)OCCCC [Example 32, tributyl aconitate]",28.7
2,"CCCCOC(=O)C=C(CC(=O)OCCCC)C(=O)OCCCC [Example 33, tributyl aconitate]",30.8
3,"CCCCOC(=O)C=C(CC(=O)OCCCC)C(=O)OCCCC [Example 34, tributyl aconitate]",27.7
4,"CCCCOC(=O)C=C(CC(=O)OCCCC)C(=O)OCCCC [Example 35, tributyl aconitate]",38.4
5,"CCCCOC(=O)C=C(CC(=O)OCCCC)C(=O)OCCCC [Example 36, tributyl aconitate]",29.7

# System: not listed separately
# Assay: Tensile properties (GB/T 1040-2006): tensile modulus at 100%, elongation at break, elastic modulus
# Assay type: physicochemical
# Settings: PVC plastic with 35 parts plasticizer; 50 mm/min, 25°C
# Description: as §1
SMILES,Elastic modulus [MPa],Elongation at break [%],Tensile modulus at 100% [MPa]
"CCCCOC(=O)C=C(CC(=O)OCCCC)C(=O)OCCCC [Example 32, tributyl aconitate]",133.4,241.2,15.6
"CCCCOC(=O)C=C(CC(=O)OCCCC)C(=O)OCCCC [Example 33, tributyl aconitate]",204.5,223.7,18.2
"CCCCOC(=O)C=C(CC(=O)OCCCC)C(=O)OCCCC [Example 34, tributyl aconitate]",77.9,258.1,14.7
"CCCCOC(=O)C=C(CC(=O)OCCCC)C(=O)OCCCC [Example 35, tributyl aconitate]",348.6,173.4,19.8
"CCCCOC(=O)C=C(CC(=O)OCCCC)C(=O)OCCCC [Example 36, tributyl aconitate]",137.4,243.4,15.9

# System: Aspergillus terreus engineered strains
# Assay: not given
# Assay type: cell-based
# Settings: additionally added at certain doses, shake flask
# Description: Additional supplementation experiments were performed on differential amino acids and vitamins between high-yield and low-yield corn steep liquor powders. Based on the high-yield corn steep liquor powder medium, fermentation verification was performed by adding differential amino acid components and vitamin components separately. Each group was set up with three parallel replicates. After 96 hours of shake flask fermentation, the supernatant of the fermentation broth was collected for quantitative analysis using HPLC detection.
row,SMILES,effect on the yield of trans-Aconitic acid
1,NC(=O)CC[C@H](N)C(=O)O [L-glutamine],varying degrees of decrease

# System: not listed separately
# Assay: Water content (Karl Fischer moisture meter)
# Assay type: physicochemical
# Settings: aconitate/citrate products, Table 4
# Excerpt: 6. Water content: a Karl Fischer moisture meter is used to test the water content (retained to two decimal places).
row,SMILES,Water content [%]
1,"CCCCOC(=O)C=C(CC(=O)OCCCC)C(=O)OCCCC [Example 32, tributyl aconitate]",0.02
2,"CCCCOC(=O)C=C(CC(=O)OCCCC)C(=O)OCCCC [Example 33, tributyl aconitate]",0.04
3,"CCCCOC(=O)C=C(CC(=O)OCCCC)C(=O)OCCCC [Example 34, tributyl aconitate]",0.03
4,"CCCCOC(=O)C=C(CC(=O)OCCCC)C(=O)OCCCC [Example 35, tributyl aconitate]",0.03
5,"CCCCOC(=O)C=C(CC(=O)OCCCC)C(=O)OCCCC [Example 36, tributyl aconitate]",0.04

# System: not listed separately
# Assay: Acid value (KOH titration)
# Assay type: physicochemical
# Settings: aconitate/citrate products, Table 4
# Description: The aconitates and citrates prepared in the above examples and comparative examples were tested for acid value, purity, chromaticity, yield, triester conversion rate, and water content. […] The mixture was neutralized with 0.02 mol·L^-1 potassium hydroxide aqueous solution until a faint pink color appears, and the consumed volume Vo was recorded. 1 g of the sample (accurate to 0.01 g) was weighed using a ground-neck conical flask, then one portion of the above neutralized solution was added. After the sample was completely dissolved, the sample was titrated with 0.02 mol·L^-1 potassium hydroxide-ethanol standard titration solution (the titration should be completed within 30 seconds) until a faint pink color appeared and persisted for 5 seconds without fading, which was considered as an end point. The consumed volume V was recorded. […] Chromatographic column: C18 column; injector: 10 µL micro-syringe; solvent: acetonitrile (HPLC grade); acquisition time: 15 min; mobile phase: 80% acetonitrile (HPLC grade) and 20% deionized water; injection volume: 1 µL; wavelength: 230 nm.
row,SMILES,Acid value [KOH/g]
1,"CCCCOC(=O)C=C(CC(=O)OCCCC)C(=O)OCCCC [Example 32, tributyl aconitate]",0.05
2,"CCCCOC(=O)C=C(CC(=O)OCCCC)C(=O)OCCCC [Example 33, tributyl aconitate]",0.05
3,"CCCCOC(=O)C=C(CC(=O)OCCCC)C(=O)OCCCC [Example 34, tributyl aconitate]",0.05
4,"CCCCOC(=O)C=C(CC(=O)OCCCC)C(=O)OCCCC [Example 35, tributyl aconitate]",0.05
5,"CCCCOC(=O)C=C(CC(=O)OCCCC)C(=O)OCCCC [Example 36, tributyl aconitate]",0.05
